Assay results: patent US20060069132A1, “Azolecarboxamide herbicides” (priority 2004, published 2006)

Columns and labels:
giant foxtail [1] = experiment: Test A pre-/postemergence herbicide test; assay type: in vivo, Setaria faberi
Method in brief: (§1)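 Greenhouse injury scoring (0–100, complete control = 100) at approximately ten days follows simultaneous pre- and postemergence application. Soil received a directed spray after seeding; seedlings of 2–10 cm at the one- to two-leaf stage were sprayed to runoff.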

barnyardgrass [2] = experiment: Test B flooded paddy test; assay type: in vivo, Echinochloa crus-galli; conditions: 1000 g ai/ha, visual rating, scale 0 to 100 (0 no effect, 100 complete control), 13 to 15 days
Method in brief: (§2)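 Greenhouse test; postemergence application to plants at 1–4 leaves (2–18 cm); paddy species at 2 leaves; evaluated visually vs controls at 13–15 days; scale 0–100 (100 = complete control).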

blackgrass = experiment: Test B postemergence herbicide test; assay type: in vivo, Alopecurus myosuroides; conditions: scale 0 (no effect) to 100 (complete control)
Method in brief: as §2

redroot pigweed = experiment: Test A pre-/postemergence herbicide test; assay type: in vivo, Amaranthus retroflexus
Method in brief: as §1

large crabgrass [3] = experiment: Test B pre-/postemergence herbicide test; assay type: in vivo, Digitaria sanguinalis
Method in brief: (§3)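 Formulation: non-phytotoxic solvent mix with surfactant. Timing: preemergence on seed and postemergence on 2–18 cm plants, applied concurrently. Readout after 13–15 d greenhouse: visual 0–100 control rating against controls.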

large crabgrass [4] = experiment: Test A pre-/postemergence herbicide test; assay type: in vivo, Digitaria sanguinalis
Method in brief: as §1

pigweed = experiment: Test B pre-/postemergence herbicide test; assay type: in vivo, Amaranthus retroflexus
Method in brief: as §3

rice [5] = experiment: Test B pre-/postemergence herbicide test; assay type: in vivo, Oryza sativa; conditions: preemergence
Method in brief: as §3

corn = experiment: Test B pre-/postemergence herbicide test; assay type: in vivo, Zea mays
Method in brief: as §3

velvetleaf [6] = experiment: Test B pre-/postemergence herbicide test; assay type: in vivo, Abutilon theophrasti
Method in brief: as §3

cocklebur = experiment: Test B pre-/postemergence herbicide test; assay type: in vivo, Xanthium strumarium
Method in brief: (§4)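 Greenhouse pot assay with simultaneous preemergence (treated seed) and postemergence (2–18 cm seedlings) applications of surfactant-containing, non-phytotoxic solvent formulations. Response scored visually 13–15 days later on a 0–100 scale, 100 meaning complete control.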

[7] = system: small flower umbrella sedge; experiment: Test B flooded paddy test; assay type: in vivo, Cyperus difformis; conditions: 1000 g ai/ha, visual rating, scale 0 to 100 (0 no effect, 100 complete control), 13 to 15 days
Method in brief: as §2

wild oat = experiment: Test B postemergence herbicide test; assay type: in vivo, Avena fatua; conditions: scale 0 (no effect) to 100 (complete control)
Method in brief: (§5)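 Postemergence plants were sprayed with formulated test chemicals at 2 to 18 cm height (1- to 4-leaf stage); paddy species were grown to the 2-leaf stage. After 13 to 15 days in a greenhouse, injury was rated visually against untreated controls on a 0–100 scale (0 = no effect, 100 = complete control).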

morningglory [8] = experiment: Test B pre-/postemergence herbicide test; assay type: in vivo, Ipomoea coccinea
Method in brief: as §4

Surinam grass = experiment: Test B pre-/postemergence herbicide test; assay type: in vivo, Urochloa decumbens
Method in brief: as §3

morningglory [9] = experiment: Test A pre-/postemergence herbicide test; assay type: in vivo, Ipomoea spp.
Method in brief: as §1

barnyardgrass [10] = experiment: Test B pre-/postemergence herbicide test; assay type: in vivo, Echinochloa crus-galli
Method in brief: as §4

rice [11] = experiment: Test B flooded paddy test; assay type: in vivo, Oryza sativa; conditions: 1000 g ai/ha, visual rating, scale 0 to 100 (0 no effect, 100 complete control), 13 to 15 days
Method in brief: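 Scale 0–100: zero equals no visible effect, 100 complete control, judged by eye relative to controls. Timing: 13 to 15 days in greenhouse post-treatment. Growth stage at spraying: two leaves (paddy) or one to four leaves, 2–18 cm (postemergence).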

barnyardgrass [12] = experiment: Test A pre-/postemergence herbicide test; assay type: in vivo, Echinochloa crus-galli
Method in brief: as §1

giant foxtail [13] = experiment: Test B pre-/postemergence herbicide test; assay type: in vivo, Setaria faberi
Method in brief: as §3

wheat = experiment: Test B postemergence herbicide test; assay type: in vivo, Triticum aestivum; set-up: key to Wheat plant response rating: 0 = no effect, 100 = complete control; conditions: scale 0 (no effect) to 100 (complete control)
Method in brief: as §5

velvetleaf [14] = experiment: Test A pre-/postemergence herbicide test; assay type: in vivo, Abutilon theophrasti
Method in brief: as §1

ducksalad = experiment: Test B flooded paddy test; assay type: in vivo, Heteranthera limosa; conditions: 1000 g ai/ha, visual rating, scale 0 to 100 (0 no effect, 100 complete control), 13 to 15 days
Method in brief: as §2

lambsquarters = experiment: Test B pre-/postemergence herbicide test; assay type: in vivo, Chenopodium album
Method in brief: as §3

[15] = Postemergence, 500 g ai/ha, 0 to 100 scale, 0 no effect, 100 complete control
[16] = Postemergence, 2000 g ai/ha, 0 to 100 scale, 0 no effect, 100 complete control
[17] = Preemergence, 500 g ai/ha, visual rating, 0 to 100 scale (0 no effect, 100 complete control)
[18] = Preemergence, 2000 g ai/ha, visual rating, 0 to 100 scale (0 no effect, 100 complete control)
[19] = Postemergence, 500 g ai/ha, visual rating after 13 to 15 days
[20] = postemergence, 125 g ai/ha, visual rating
[21] = 500 g ai/ha, visual rating 0-100, 0 no effect, 100 complete control, preemergence
[22] = Postemergence, 500 g ai/ha, visual rating after 13 to 15 days, scale 0 (no effect) to 100 (complete control)
[23] = postemergence, 125 g ai/ha, visual rating, scale 0 (no effect) to 100 (complete control)
[24] = preemergence, 125 g ai/ha, 0 to 100 scale, 0 is no effect, 100 is complete control

CCn1nc(C(C)(C)C)cc1C(=O)Nc1cccc(C(=O)OC(C)(C)C)c1 [Compound 98]
Foxtail, Giant plant response rating (giant foxtail [1]; [15]): 0 | Plant response rating, Foxtail, Giant (giant foxtail [1]; [16]): 0 | Foxtail, Giant plant response rating (giant foxtail [1]; [17]): 0 | Foxtail, Giant plant response rating (giant foxtail [1]; [18]): 0 | Barnyardgrass plant response rating (barnyardgrass [2]): 0 | Plant response rating, Blackgrass (blackgrass; [19]): 0 | Blackgrass plant response rating (blackgrass; [20]): 0 | Pigweed plant response rating (redroot pigweed; [15]): 5 | Plant response rating, Pigweed (redroot pigweed; [16]): 10 | Pigweed plant response rating (redroot pigweed; [17]): 0 | Pigweed plant response rating (redroot pigweed; [18]): 0 | Plant response rating, Crabgrass, Large (large crabgrass [3]; [21]): 0 | Plant response rating, Crabgrass, Large (large crabgrass [3]; [22]): 20 | Crabgrass, Large plant response rating (large crabgrass [3]; [23]): 20 | Plant response rating, Crabgrass, Large (large crabgrass [3]; [24]): 0 | Crabgrass, Large plant response rating (large crabgrass [4]; [15]): 0 | Plant response rating, Crabgrass, Large (large crabgrass [4]; [16]): 0 | Crabgrass, Large plant response rating (large crabgrass [4]; [17]): 0 | Crabgrass, Large plant response rating (large crabgrass [4]; [18]): 0 | Plant response rating, Pigweed (pigweed; [21]): 0 | Plant response rating, Pigweed (pigweed; [22]): 30 | Pigweed plant response rating (pigweed; [23]): 10 | Plant response rating, Pigweed (pigweed; [24]): 0 | Plant response rating, Rice (rice [5]; 500 g ai/ha, visual rating 0-100, 0 no effect, 100 complete control): 0 | Plant response rating, Rice (rice [5]; 125 g ai/ha, 0 to 100 scale, 0 is no effect, 100 is complete control): 0 | Plant response rating, Corn (corn; [21]): 0 | Plant response rating, Corn (corn; [22]): 10 | Corn plant response rating (corn; [23]): 10 | Plant response rating, Corn (corn; [24]): 0 | Plant response rating, Velvetleaf (velvetleaf [6]; [21]): 0 | Plant response rating, Velvetleaf (velvetleaf [6]; [22]): 10 | Velvetleaf plant response rating (velvetleaf [6]; [23]): 10 | Plant response rating, Velvetleaf (velvetleaf [6]; [24]): 0 | Plant response rating, Cocklebur (cocklebur; [21]): 0 | Plant response rating, Cocklebur (cocklebur; [22]): 20 | Cocklebur plant response rating (cocklebur; [23]): 0 | Plant response rating, Cocklebur (cocklebur; [24]): 0 | Sedge, Umbrella plant response rating [7]: 0 | Plant response rating, Oat, Wild (wild oat; [19]): 10 | Oat, Wild plant response rating (wild oat; [20]): 0 | Plant response rating, Morningglory (morningglory [8]; [21]): 0 | Plant response rating, Morningglory (morningglory [8]; [22]): 20 | Morningglory plant response rating (morningglory [8]; [23]): 0 | Plant response rating, Morningglory (morningglory [8]; [24]): 0 | Plant response rating, Surinam Grass (Surinam grass; [21]): 0 | Plant response rating, Surinam Grass (Surinam grass; [22]): 20 | Surinam Grass plant response rating (Surinam grass; [23]): 10 | Plant response rating, Surinam Grass (Surinam grass; [24]): 0 | Morningglory plant response rating (morningglory [9]; [15]): 0 | Plant response rating, Morningglory (morningglory [9]; [16]): 0 | Morningglory plant response rating (morningglory [9]; [17]): 0 | Morningglory plant response rating (morningglory [9]; [18]): 0 | Plant response rating, Barnyardgrass (barnyardgrass [10]; [21]): 0 | Plant response rating, Barnyardgrass (barnyardgrass [10]; [22]): 10 | Barnyardgrass plant response rating (barnyardgrass [10]; [23]): 10 | Plant response rating, Barnyardgrass (barnyardgrass [10]; [24]): 0 | Rice plant response rating (rice [11]): 0 | Barnyardgrass plant response rating (barnyardgrass [12]; [15]): 0 | Plant response rating, Barnyardgrass (barnyardgrass [12]; [16]): 0 | Barnyardgrass plant response rating (barnyardgrass [12]; [17]): 0 | Barnyardgrass plant response rating (barnyardgrass [12]; [18]): 0 | Plant response rating, Foxtail, Giant (giant foxtail [13]; [21]): 0 | Plant response rating, Foxtail, Giant (giant foxtail [13]; [22]): 10 | Foxtail, Giant plant response rating (giant foxtail [13]; [23]): 10 | Plant response rating, Foxtail, Giant (giant foxtail [13]; [24]): 0 | Plant response rating, Wheat (wheat; [19]): 0 | Wheat plant response rating (wheat; [20]): 0 | Velvetleaf plant response rating (velvetleaf [14]; [15]): 0 | Plant response rating, Velvetleaf (velvetleaf [14]; [16]): 5 | Velvetleaf plant response rating (velvetleaf [14]; [17]): 0 | Velvetleaf plant response rating (velvetleaf [14]; [18]): 0 | Ducksalad plant response rating (ducksalad): 0 | Plant response rating, Lambsquarters (lambsquarters; [21]): 0 | Plant response rating, Lambsquarters (lambsquarters; [22]): 30 | Lambsquarters plant response rating (lambsquarters; [23]): 20 | Plant response rating, Lambsquarters (lambsquarters; [24]): 0
